In brackets after ≈: the same amount, converted by molar mass. Where two headings read alike, the source gives them in different places.
Experiments:
[1] = system: E. coli ATCC 8739; assay: Broth microdilution MIC/MBC on planktonic cells; format: cell-based; conditions: Escherichia coli, ATCC8739
Method: (§1) Two Gram-positive (S. aureus ATCC 29213 and S. epidermidis ATCC 35984) and two Gram-negative (E. coli ATCC 8739 and P. aeruginosa ATCC 9027) strains, and one fungal strain (C. albicans ATCC 10231) were used for the detection of antibacterial activity of carvacrol, NAC, Ac-Cys(Allyl)-OH, and carvacrol codrugs 1–10. All tested compounds were dissolved in 20% DMSO to prepare the stock solution (100 mg/mL). The final concentration of DMSO in each well appeared to be not toxic for all studied microorganisms, as confirmed by the solvent control test included in the study.
(§2) The effects of carvacrol codrugs 1–10 and reference compounds on planktonic cells were evaluated by Minimum Inhibitory Concentration (MIC) and Minimum Bactericidal Concentration (MBC) determination using the broth microdilution method according to EUCAST guidelines. Bacterial suspensions, grown in Mueller–Hinton Broth (MHB) at logarithmic phase, were incubated on microtiter plates at a concentration of 5 x 10^5 CFU/mL, with several dilutions (0.07–40 mg/mL) for 24 h at 37°C. The MIC was defined as the lowest concentration of substances giving a complete inhibition of visible growth in comparison with a control well, and the MBC was determined as the lowest concentration at which no bacterial growth occurred on Mueller–Hinton Agar plates.
(§3) Data were obtained from at least three independent experiments performed in duplicate. The susceptibility of the bacterial strains against ciprofloxacin was used as an internal standard during MIC determinations.

[2] = system: P. aeruginosa ATCC 9027; assay: Broth microdilution MIC/MBC on planktonic cells; format: cell-based; conditions: Pseudomonas aeruginosa, ATCC9027
Method: as §1, §2, §3

[3] = system: S. aureus ATCC 29213; assay: Broth microdilution MIC/MBC on planktonic cells; format: cell-based; conditions: Staphylococcus aureus, ATCC29213
Method: as §1, §2, §3

[4] = system: S. epidermidis ATCC 35984; assay: Broth microdilution MIC/MBC on planktonic cells; format: cell-based; conditions: Staphylococcus epidermidis, ATCC35984
Method: as §1, §2, §3

[5] = system: C. albicans ATCC 10231; assay: Broth microdilution MIC/MFC; format: cell-based; conditions: Candida albicans, ATCC10231
Method: as §1
The MIC detection of C. albicans ATCC 10231 was performed using the broth microdilution method according to EUCAST guidelines in RPMI 1640 plus 2% glucose with a final inoculum of 1–5 x 10^5 CFU/mL for 24–48 h at 37°C. The Minimum Fungicidal Concentration (MFC) was determined as the lowest concentration of substances at which no fungal growth occurred on Sabouraud agar plates.
as §3

[6] = system: human red blood cells (h-RBC); assay: Hemolytic activity; format: cell-based
Method: Experimental protocols to study hemolysis on human red cells were approved by Ethics Committee of the University “G. d’Annunzio” Chieti-Pescara. Human red cells were from two volunteers, who signed the informed consent for this study.
Hemolytic activity of carvacrol codrugs 1–10 was tested against human red blood cells (h-RBC). Fresh human blood, collected with EDTA, was centrifuged at 3000 rpm for 5 min then washed three times with PBS pH 7.3. Red blood cells were diluted to 4% in PBS and incubated with different codrugs concentrations ranging from 25 to 0.05 mg/mL. After 1 h of incubation at 37°C, the suspensions were sedimented by centrifugation and the release of hemoglobin was determined by absorbance measurement at 405 nm and compared with a 0% hemolysis control (PBS) and a 100% hemolysis control (PBS with 1% v/v Triton X-100). The percentage of hemolysis was calculated using the following equation: Hemolysis (%) = [(OD405sample - OD4050% lysis control)/(OD405100% lysis control - OD4050% lysis contro)] X 100

[7] = Water solubility (HPLC); format: physicochemical; conditions: thermodynamic from solid, room temperature, mean of three experiments (SD)
Method: The HPLC system consisted of a Waters 600 HPLC pump (Waters Corporation, Milford, MA, USA), equipped with a Waters 2996 photodiode array detector. The column was a Kinetex RP-C8 column (3.0 x 150 mm, 5 μm). The mobile phase consisted of 0.1% TFA in acetonitrile/0.1% TFA in 95% H2O and 5% acetonitrile 50:50, under isocratic conditions at a flow rate of 1 mL/min. The UV detector was set at a length of 220 nm. […] Then the mixture was filtered using a Millipore filter (0.45 μm) and the concentration of the compound in its saturated solution was determined by HPLC analysis.

[8] = Lipophilicity LogP (experimental); format: physicochemical; conditions: mean of three experiments (SD)
Text: Table 3 Physicochemical properties of carvacrol codrug 4. | column: Lipophilicity / LogP ^a

[9] = PAMPA-GI permeability; format: in vitro ADME; conditions: for Papp at 16 h: 16 h of incubation (table title), 2% Tween 80, 10% MeOH, read-out: PAMPA-GI permeability P e
Method: Parallel Artificial Membrane Permeability Assay (PAMPA) was used to measure the permeability coefficient (P e) of codrug 4 through the artificial membrane to predict oral absorption. The carvacrol codrug 4 permeability was determined using PAMPA-GI protocols already developed. Briefly, donor and acceptor plates were assembled to form a “sandwich” and incubated at room temperature for 18 h.
P e can be calculated from the equation below: Pe={VD⋅VA/(VD+VA)⋅A⋅t⋅ln(1−[drug]acceptor/[drug]equilibrium)} (1) where P e is the effective permeability coefficient (cm × s^-1), V D is the volume of the donor compartment (0.15 cm^3) and V A is the volume of the acceptor compartment (0.30 cm^3), A is the effective filter area (0.28 cm^2), t is the incubation time for the assay (s), [drug] acceptor is the concentration of the compound in the acceptor compartment at assay completion, and [drug] equilibrium is the concentration of the compound at theoretical equilibrium.

Compound: C=CCSC[C@H](NC(C)=O)C(=O)Oc1cc(C(C)C)ccc1C [codrug 4, N-Ac-Cys(Allyl)-CAR]
- MIC ([1]; E. coli ATCC 8739, 24 h at 37°C, read-out: MIC): 2500 µg/mL (≈ 7.45 mM)
- MBC ([1]; E. coli ATCC 8739, read-out: MBC): 2500 µg/mL (≈ 7.45 mM)
- MIC ([2]; P. aeruginosa ATCC 9027, 24 h at 37°C, read-out: MIC): 5000 µg/mL (≈ 14.9 mM)
- MBC ([2]; P. aeruginosa ATCC 9027, read-out: MBC): 10000 µg/mL (≈ 29.8 mM)
- MIC ([3]; S. aureus ATCC 29213, 24 h at 37°C, read-out: MIC): 2500 µg/mL (≈ 7.45 mM)
- MBC ([3]; S. aureus ATCC 29213, read-out: MBC): 2500 µg/mL (≈ 7.45 mM)
- MIC ([4]; S. epidermidis ATCC 35984, 24 h at 37°C, read-out: MIC): 2500 µg/mL (≈ 7.45 mM)
- MBC ([4]; S. epidermidis ATCC 35984, read-out: MBC): 2500 µg/mL (≈ 7.45 mM)
- MIC ([5]; C. albicans ATCC 10231, 24–48 h at 37°C, read-out: MIC): 1250 µg/mL (≈ 3.73 mM)
- MFC ([5]; C. albicans ATCC 10231, read-out: MFC): 1250 µg/mL (≈ 3.73 mM)
- concentration at which hemolytic activity is over 50% ([6]; 4% h-RBC, 1 h at 37°C): 5000 µg/mL
- hemolysis / toxicity at MIC values (in words) ([6]; h-RBC, at MIC values): not toxic at the MIC values
- solubility at 15 min [7]: 150 µg/mL (≈ 0.447 mM)
- logP [8]: 1.21
- Papp at 18 h ([9]; at each value of pH (5.0, 6.5, 7.4), after 18 h of incubation, read-out: PAMPA-GI permeability P e (bound)): > 1 ×10⁻⁶ cm/s
- Papp at 16 h ([9]; pH 5.0 in donor and acceptor): 8.6 ×10⁻⁶ cm/s
- Papp at 16 h ([9]; pH 6.5 in donor and acceptor): 17 ×10⁻⁶ cm/s
- Papp at 16 h ([9]; pH 7.4 in donor and acceptor): 2.34 ×10⁻⁶ cm/s
